# Tests used:
# [1] = Head-to-head in-use test, 5% Mannitol dosing solution in IV bag, syringe and IV line with rocking; assay type: physicochemical
# Protocol: (§1) A head-to-head in-use test of the SDC-TRAP-0063 Sodium 0.9% Sodium Chloride and 5% Mannitol dosing solutions was conducted. This study was intended to directly compare the two based on the specific clinical use direction for each diluent. In this study, the respective IV bags, syringes and IV lines were subjected to a rocking motion during the hold periods to mimic a worst case scenario for agitation of the dosing solution.
# The 5% Mannitol dosing solution was tested in a syringe and IV line as designed for use in the clinic with the addition of continuous rocking to simulate a worst case for agitation of the samples (Table 6). This dosing solution was tested at the limits of intended concentrations of 3 mg/mL and 12 mg/mL of SDC-TRAP-0063 Sodium and with a 2 hour hold period in the IV bag, a 6 hour hold period in the syringe and IV line and a 2-hour simulated infusion to exceed the planned clinical timeframes.
# [2] = Head-to-head in-use test, 0.9% Sodium Chloride dosing solution in IV bag and IV line with rocking; assay type: physicochemical; design: key to appearance: Conforms = clear and essentially free of visible particles; settings: for appearance: 0.6 mg/mL in Sodium Chloride
# Protocol: as §1
# The 0.9% Sodium Chloride dosing solution was tested in an IV bag and IV line and at 0.6 mg/mL of SDC-TRAP-0063 Sodium as used in the clinic during the product complaint, with a designed 4 hour hold period followed by a 2-hour simulated infusion using a peristaltic pump (Table 5).
smiles,measurement,setting,value
"CCc1c2c(nc3ccc(OC(=O)N4CCC(CCn5ccc6cc(-n7c(O)nnc7-c7cc(C(C)C)c(O)cc7O)ccc65)CC4)cc13)-c1cc([C@@](O)(CC)C(=O)[O-])c(CO)c(=O)n1C2.[Na+] [SDC-TRAP-0063 Sodium, Sodium (S)-2-(2-((4-(2-(5-(3-(2,4-dihydroxy-5-isopropylphenyl)-5-hydroxy-4H-1,2,4-triazol-4-yl)-1H-indol-1-yl)ethyl)piperidine-1-carbonyl)oxy)-12-ethyl-8-(hydroxymethyl)-9-oxo-9,11-dihydroindolizino[1,2-b]quinolin-7-yl)-2-hydroxybutanoate]",precipitation,"[1]; 3 mg/mL and 12 mg/mL, all time points, continuous rocking",no precipitation was observed at any time point
same,Recovery of SDC-TRAP-0063 Sodium (Calculated vs. Initial concentration),"[1]; 3 mg/mL, Bulk solution, 8 hours (6 + 2 infusion)",98.0%
same,Recovery of SDC-TRAP-0063 Sodium (Calculated vs. Initial concentration),"[1]; 3 mg/mL, IV bag, 0 hours",100.0%
same,Recovery of SDC-TRAP-0063 Sodium (Calculated vs. Initial concentration),"[1]; 3 mg/mL, IV bag, 2 hours",102.5%
same,Recovery of SDC-TRAP-0063 Sodium (Calculated vs. Initial concentration),"[1]; 3 mg/mL, IV line (infusion end), 8 hours (6 + 2 infusion)",98.7%
same,Recovery of SDC-TRAP-0063 Sodium (Calculated vs. Initial concentration),"[1]; 3 mg/mL, IV line (infusion start), 6 hours, low volume in syringe, complete sample not obtained",93.5%^1
same,Recovery of SDC-TRAP-0063 Sodium (Calculated vs. Initial concentration),"[1]; 3 mg/mL, IV line, 0 hours",97.2%
same,Recovery of SDC-TRAP-0063 Sodium (Calculated vs. Initial concentration),"[1]; 12 mg/mL, Bulk solution, 8 hours (6 + 2 infusion)",105.4%
same,Recovery of SDC-TRAP-0063 Sodium (Calculated vs. Initial concentration),"[1]; 12 mg/mL, IV bag, 0 hours",100.0%
same,Recovery of SDC-TRAP-0063 Sodium (Calculated vs. Initial concentration),"[1]; 12 mg/mL, IV bag, 2 hours",103.9%
same,Recovery of SDC-TRAP-0063 Sodium (Calculated vs. Initial concentration),"[1]; 12 mg/mL, IV line (infusion end), 8 hours (6 + 2 infusion)",104.3%
same,Recovery of SDC-TRAP-0063 Sodium (Calculated vs. Initial concentration),"[1]; 12 mg/mL, IV line (infusion start), 6 hours",101.6%
same,Recovery of SDC-TRAP-0063 Sodium (Calculated vs. Initial concentration),"[1]; 12 mg/mL, IV line, 0 hours",103.6%
same,termination of the simulated infusion after onset due to occlusion of the in-line filter,"[2]; 0.6 mg/mL in 0.9% Sodium Chloride, 2-hour simulated infusion, peristaltic pump",≤ 1 h
same,precipitation during the hold period,"[2]; 0.6 mg/mL in 0.9% Sodium Chloride, 4 hour hold period, rocking",Precipitation was observed in both the IV bag and IV line
same,appearance,"[2]; Bulk solution, at termination, collected after in line filter",Conforms^1
same,appearance,"[2]; Drip Chamber of the IV Administration set, less than 1 hour (infusion terminated)",Hazy with fine floating
same,appearance,"[2]; IV Administration set, 0 hours, collected after in line filter",Conforms^1
same,appearance,"[2]; IV bag, 0 hours",Conforms^1
same,appearance,"[2]; IV bag, 2 hours",Slightly hazy solution
same,appearance,"[2]; IV bag, 4 hours, collected after in line filter",Conforms^1

# Reference: patent US20200230126A1, “TARGETED THERAPEUTICS” (TARVEDA THERAPEUTICS, INC., priority 2017, published 2020)
